What was measured:
MEL cells [1] = conditions: cited from earlier work; for HG cells, % (% of cells hemoglobinized): Table 3, at optimal concentration; for Opt. [ ], μM (Optimal concentration): Table 3
MEL cells [2] = test: HMBA-induced MEL cell differentiation, benzidine staining for hemoglobin; assay type: cell-based, mouse; conditions: 5 mM HMBA, at 120 hours
Protocol: Murine erythroleukemia Friend cells (MEL), were maintained in RPMI supplemented with 10% (v/v) heat inactivated fetal bovine serum (HyClone) and 10^−5 M β-mercaptoethanol (β-ME). To induce differentiation, logarithmically growing cells were plated at 1×10^5 cells/ml in medium containing 5 mM HMBA for 120 hours. Cells were passaged to initial density at 72 hours. Cells were assayed for the presence of hemoglobin (Orkin et al., Proc. Natl. Acad. Sci. USA 1975, 72:98-102) by the addition of 1/10 volume of freshly prepared benzidine reagent (0.4% benzidine base, 2% hydrogen peroxide in 12% acetic acid). Benzidine positive cells were counted in modified Neubauer hemocytometers. Each sample was counted by two independent operators, blinded to the cell treatment, and readings were averaged.
The accumulation of differentiated cells, as determined by benzidine staining, was analyzed during the 120 hours of culture with HMBA (FIG. 8C). There was a steady increase in differentiated cells from 48 hours onwards, that generally reached 35-45%, at 120 hours. […] Cultures were not continued beyond 120 hours, because at this time Notch-1 was reproducibly undetectable.

[3] = patients; cited from earlier work
Notch-1 = Notch-1 mRNA and protein expression in MEL cells with HMBA (RT-PCR, western blot); assay type: cell-based, mouse; conditions: 5 mM HMBA, 4 to 120 hours
Protocol: Total RNA was extracted from cells using Trizol reagent (Life Technologies). RT-PCR was performed using the Thermostable Reverse Transcriptase RNA PCR kit (Perkin Elmer) according to manufacturer's instructions. Reactions were amplified in a Perkin Elmer 2400 DNA thermal cycler for 40 cycles of denaturation at 94° C. for 1 minute, annealing and extension at 65° C. for 2 minutes. Amplification of mouse primers specific for Notch-1, SEQ ID NO 1, and SEQ ID NO 2, generated a product of 431 bp. Primers specific for GAPDH: sense 5′ TCACCACCATGGAGAAGG 3′ (SEQ ID NO 3) and antisense 5′ […] 3′ (SEQ ID NO 4) generated a 200 bp product. Negative and positive PCR controls were included in every experiment.
To determine whether Notch-1 expression is regulated during HMBA-induced MEL cell differentiation, Notch-1 mRNA levels were analyzed in MEL cells set up at equal density and maintained in culture for 4, 8, 24 or 120 hours in the absence or presence of HMBA.
Notch-1 steady state protein levels were determined by western blot using the polyclonal antibody to Notch-1 (see Example 2). […] Notch-1 steady state protein levels reflected the Notch-1 mRNA pattern of expression. In the presence of HMBA (H), Notch-1 protein was reproducibly evident in the early stages of induction, but gradually disappeared becoming essentially undetectable at 120 hours. […] In uninduced MEL cells (C). […]

3T3-L1 cells = conditions: Garcés et al. 1997; cited from earlier work
Transformed cells = conditions: Table 2, hybrid polar compounds; cited from earlier work
[4] = test system: MEL murine erythroleukemia cells; parameters: key: +: Compound induces terminal differentiation of the transformed cells; conditions: terminal differentiation; cited from earlier work
[5] = test system: HT-29 human colon cancer cells; parameters: key: +: Compound induces terminal differentiation of the transformed cells; conditions: terminal differentiation; cited from earlier work
[6] = test system: HL-60 human promyelocytic leukemia cells; parameters: key: +: Compound induces terminal differentiation of the transformed cells; conditions: terminal differentiation; cited from earlier work
MEL cells [7] = test: Late apoptotic fraction (sub-G1 peak) and viability of S-oligo treated MEL cells, flow cytometry; assay type: cell-based, mouse
Protocol: (§1) The late apoptotic fraction (sub-G1 peak) in cells treated with Lin-12 sense, antisense and scrambled S-oligos in the presence of HMBA was determined by flow cytometry (FIG. 11B). […] The Lin-12 antisense S-oligo, but not the sense or scrambled control, decreased expression of Notch-1 protein by 50-75% at 48 hours in three experiments. […] Actin expression was also unaffected by a transfected 1100 bp construct in a plasmid, as discussed below in Example 11.
Parental MEL or transfected clones were synchronized for cell cycle analysis experiments by density arrest (Ryan et al., Mol. Cell Biol. 1993, 13:711-719). At this point, cells were plated at 1×10^5 cells/ml in medium containing 5 mM HMBA. For the transfected clones, 700 μg/ml G418 was added to the medium. At 16 hours, cells were harvested, fixed in 1% paraformaldehyde for 15 minutes and then 70% ethanol overnight. Cells were resuspended, at constant cell density, in PI solution (50 μg/ml PI (propidum iodide), 0.1% Triton-X-100, 200 μg/ml RNAase A) for 1 hour at room temperature with mixing. […] The DNA content of cells was determined using a Becton Dickinson FACScan flow cytometer. Cells appearing as a sub-G1 peak were scored as apoptotic. In cell cycle analyses, apoptotic and dead cells were gated out and only the viable population was analyzed.

actin = test: Actin levels in S-oligo treated MEL cells; assay type: cell-based, mouse; conditions: sense, antisense and scrambled compared
Protocol: as §1

Notch-1 protein = Notch-1 protein expression in S-oligo treated MEL cells; assay type: cell-based, mouse; conditions: at 48 hours, three experiments
Protocol: as §1
Cell pellets were solubilized in hot 2×SDS sample buffer containing 10% β-ME and analyzed by 4% SDS/PAGE. Proteins were electroblotted to Immobilon P (Millipore) in 10 mM CAPS with 10% methanol at 0.75 A for 5 hours. Notch-1 proteins were detected using a chemiluminescence Western blotting kit (Boehringer Mannheim) according to manufacturer's instructions. Relative band intensities were determined by the Kodak 1-D analysis software.

SY5Y cells = test: SY5Y cell survival with S-oligos and antineoplastic agent (CellTiter 96 AQueous assay); assay type: cell-based, human; conditions: 50 ng/ml agent, S-oligos 25-100 μM, 1 μM RA
Protocol: SY5Y cells, a neuroblastoma cell line (Example 3) were split into 96 well plates and grown in RPMI 1640 with glutamine, 10% FCS and 1 μM RA. At approximately 60% confluence, the phosphorothioate oligonucleotides (S-oligos, antisense, sense and scrambled; see Example 10) at various concentrations (25, 50, 75 and 100 μM) were added. Subsequently, 50 ng/ml of vinblastine (Sigma, St. Louis Mo., V-1377) was added to half of the wells (based on preliminary dose ranging experiments). Cell survival was measured using Promega's CellTiter 96 AQueous assay, which measures viable cells in the well. Paclitaxel (Sigma, St. Louis Mo., T-1912), another member of the […], was also tested (at 50 ng/ml) using this same assay.

thymocytes = test: Apoptosis of thymocytes from Notch-1 antisense transgenic mice after dexamethasone; assay type: cell-based, mouse; conditions: thymocytes of Notch-1 antisense transgenic mice, pharmacologic dose
From the text: A pMAMneo plasmid was used which contained the same insert that was used in the pcDNA 3.1 plasmid that was introduced into the MEL cells. This construct expresses the antisense under a MMTV LTR promoter, which has good basal activity and is stimulated by several steroid hormones, such as estradiol, glucocorticoids and androgens. The plasmid was linearized, purified, and microinjected into mouse embryos which were then implanted into surrogate mothers. Pups were screened for the presence of the transgene by PCR on tail snippets. This was done on two separate instances, which generated one positive founder male and one positive founder female containing Notch-1 antisense in their genomes. The founder animals were separately bred into a C57bl6 background for several generations until homozygous positive mice were obtained which bred true (generated all positive litters).
Pharmacological stimuli were used to induce apoptosis more readily in thymocyte cells from these mice.
Thymocytes undergo differentiation in the thymus, and normally express Notch-1. Spontaneous apoptosis levels in thymocytes were not increased, but apoptosis and cell death levels were increased about 50% by a pharmacologic dose of dexamethasone, a steroid used for the treatment of T-cell leukemias which induces rapid terminal differentiation and death in thymocytes. […]

## O=C(CCCCCCC(=O)NO)NO [SBHA]
MEL cells [1]
  HG cells, % (% of cells hemoglobinized): 94%
  Opt. [ ], μM (Optimal concentration): 30 µM

## CC(=O)NCCCCCCNC(C)=O [HMBA, hexamethylene bisacetamide]
MEL cells [2]
  differentiated (benzidine-positive) cells: 35-45%
[3]
  adverse effect of therapy: can result in thrombocytopenia
Notch-1
  effect on Notch-1 expression pattern: causing an early increase in Notch-1 followed by a progressive decline
MEL cells [1]
  HG cells, % (% of cells hemoglobinized): 95%
  Opt. [ ], μM (Optimal concentration): 5,000 μM

## rh11-12: human recombinant Notch-1 EGF-repeats 11 and 12, 6-Histidine tagged, expressed in E. coli
3T3-L1 cells
  effect on differentiation of 3T3-L1 cells: blocked their differentiation

## O=C(/C=C/c1ccc(C(=O)NO)cc1)NO
Transformed cells
  Opt. [ ], μM (Optimal concentration): 10 to 60 µM
[4]
  Transformed cells MEL: +
[5]
  Transformed cells HT-29: +
[6]
  Transformed cells HL-60: +

## O=C(/C=C/c1cccc(C(=O)NO)c1)NO [CBHA, m-carboxycinnamic acid bishydroxamide]
MEL cells [1]
  HG cells, % (% of cells hemoglobinized): 73%
  Opt. [ ], μM (Optimal concentration): 4.0 µM

## AGACTGCGTGCAGTTCTTCCAGG (all phosphorothioate, sugars by position and methylation of C not given here) [Lin-12 antisense S-oligo, phosphorothioate antisense oligo for the Lin/Notch region of Notch-1]
MEL cells [7]; 25 μM S-oligo in the presence of HMBA, 120 hours
  late apoptotic fraction (sub-G1 peak): significantly larger effect than either sense (SEN) or scrambled (SCR) controls
MEL cells [7]; S-oligo in the presence of HMBA
  viability (cells within G1, G2/S or M regions): parallel decrease in viability
actin
  actin levels: No difference in actin levels
Notch-1 protein
  decrease of Notch-1 protein expression: 50-75%

## CC(=O)O[C@H]1C(=O)[C@@]2(C)[C@H]([C@H](OC(=O)c3ccccc3)[C@]3(O)C[C@H](OC(=O)[C@H](O)[C@@H](NC(=O)c4ccccc4)c4ccccc4)C(C)=C1C3(C)C)[C@]1(OC(C)=O)CO[C@@H]1C[C@@H]2O [Paclitaxel]
SY5Y cells
  cell survival, antineoplastic agent combined with Notch-1 antisense S-oligos: cell survival was decreased to a greater extent

## O=C(CCCCCNC(=O)Nc1cccc(Cl)c1)NO [3-Cl-UCHA]
MEL cells [1]
  HG cells, % (% of cells hemoglobinized): 32%
  Opt. [ ], μM (Optimal concentration): 4.0 µM

## O=C(CCCCCCCCC(=O)NO)NO
Transformed cells
  Opt. [ ], μM (Optimal concentration): 10 to 60 µM
[4]
  Transformed cells MEL: +
[5]
  Transformed cells HT-29: +
[6]
  Transformed cells HL-60: +

## CC(=O)NCCCCCCCCNCC=O
Transformed cells
  Opt. [ ], μM (Optimal concentration): 5,000 μM
[4]
  Transformed cells MEL: +
[5]
  Transformed cells HT-29: +
[6]
  Transformed cells HL-60: +

## CC(/C=C/C(=O)NO)=C\[C@@H](C)C(=O)c1ccc(N(C)C)cc1 [TSA]
MEL cells [1]
  HG cells, % (% of cells hemoglobinized): 80%
  Opt. [ ], μM (Optimal concentration): 0.075 µM

## CC[C@]1(O)C[C@@H]2CN(CCc3c([nH]c4ccccc34)[C@@](C(=O)OC)(c3cc4c(cc3OC)N(C)[C@H]3[C@@](O)(C(=O)OC)[C@H](OC(C)=O)[C@]5(CC)C=CCN6CC[C@]43[C@@H]65)C2)C1 [vinblastine]
SY5Y cells
  cell survival, antineoplastic agent combined with Notch-1 antisense S-oligos: cell survival was decreased to a greater extent

## C[C@@H]1C[C@H]2[C@@H]3CCC4=CC(=O)C=C[C@]4(C)[C@@]3(F)[C@@H](O)C[C@]2(C)[C@@]1(O)C(=O)CO [dexamethasone]
thymocytes
  increase of apoptosis and cell death levels: about 50%

## O=C(CCCCCCC(=O)Nc1ccccc1)NO [SAHA, Suberoylanilide hydroxamic acid]
MEL cells [1]
  HG cells, % (% of cells hemoglobinized): 68%
  Opt. [ ], μM (Optimal concentration): 2.5 µM

## CNC(=O)CCCCCCCCC(=O)NC
Transformed cells
  Opt. [ ], μM (Optimal concentration): 5,000 μM
[4]
  Transformed cells MEL: +
[5]
  Transformed cells HT-29: +
[6]
  Transformed cells HL-60: +

— patent US20050187179A1, “Apoptosis inducing agents and methods” (The Government of the United States of America as …, priority 1998, published 2005)
